The test system of the assay is BDF1 mice, P388 leukemia ip, median survival T/C. As to the kind of experiment: NCI In Vivo Anticancer Drug Screen. Data for tumor model P388 Leukemia (intraperitoneal) in B6D2F1 (BDF1) mice. The note with it: endpoint: median survival time, higher = longer survival. In a few lines: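 Reported as T/C, where T is the survival measurement in dosed animals and C the same measurement in vehicle controls.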

The mark [1] stands for this setting: dose: 6.25 mg/kg/injection, schedule: Q01DX009 (ip), vehicle: saline.
[2] abbreviates: dose: 25.0 mg/kg/injection, schedule: Q01DX009 (ip), vehicle: saline.
Where [3] appears, read: dose: 50.0 mg/kg/injection, schedule: Q01DX009 (ip), vehicle: saline.
The mark [4] stands for this setting: dose: 12.5 mg/kg/injection, schedule: Q01DX009 (ip), vehicle: saline with Tween-80.
The mark [5] stands for this setting: dose: 25.0 mg/kg/injection, schedule: Q01DX009 (ip), vehicle: saline with Tween-80.
Setting [6] is: dose: 50.0 mg/kg/injection, schedule: Q01DX009 (ip), vehicle: saline with Tween-80.
The mark [7] stands for this setting: dose: 50.0 mg/kg/injection, schedule: Q04DX003 (ip), vehicle: saline with Tween-80.
The mark [8] stands for this setting: dose: 100.0 mg/kg/injection, schedule: Q01DX009 (ip), vehicle: saline with Tween-80.
[9] abbreviates: dose: 100.0 mg/kg/injection, schedule: Q04DX003 (ip), vehicle: saline with Tween-80.
Setting [10] is: dose: 200.0 mg/kg/injection, schedule: Q01DX009 (ip), vehicle: saline with Tween-80.
Setting [11] is: dose: 200.0 mg/kg/injection, schedule: Q04DX003 (ip), vehicle: saline with Tween-80.
The mark [12] stands for this setting: dose: 400.0 mg/kg/injection, schedule: Q01DX009 (ip), vehicle: saline with Tween-80.
[13] abbreviates: dose: 400.0 mg/kg/injection, schedule: Q04DX003 (ip), vehicle: saline with Tween-80.

“And” between values parts separate entries of the source, which are not always exact repeats. Identical values can stand only once. Toxic doses and inconclusive results are not listed.

This is an account of results in PubChem BioAssay AID328 (DTP/NCI, 2004).

As for `O=C(O)C1CC[N-]CC1.O=C(O)C1CC[N-]CC1.[Cl][Pt+2]([Cl])([Cl])[Cl]`, the T/C runs as follows: (dose: 3.12 mg/kg/injection, schedule: Q01DX009 (ip), vehicle: saline) 109 % of control; under setting [1], 90 % of control; under setting [2], 94 % of control; under setting [3], 100 % of control.
For the compound `Nc1nc(Cl)nc2c1ncn2C1OC(CO)C(O)C1O` (configuration not stated), the T/C by setting is: (dose: 12.5 mg/kg/injection, schedule: Q01DX010 (ip), vehicle: carboxymethylcellulose (CMC)) 123 % of control; (dose: 50.0 mg/kg/injection, schedule: Q01DX010 (ip), vehicle: carboxymethylcellulose (CMC)) 161 % of control; (dose: 100.0 mg/kg/injection, schedule: Q01DX010 (ip), vehicle: carboxymethylcellulose (CMC)) 238 % of control; (dose: 112.5 mg/kg/injection, schedule: Q01DX009 (ip), vehicle: saline) 159 % of control and 191 % of control; (dose: 168.75 mg/kg/injection, schedule: Q01DX009 (ip), vehicle: saline) 177 % of control.
As to `Clc1nc2nsnc2nc1Cl`, the T/C is, setting by setting: (dose: 6.25 mg/kg/injection, schedule: Q04DX003 (ip), vehicle: saline with Tween-80) 101 % of control; under setting [4], 104 % of control; (dose: 12.5 mg/kg/injection, schedule: Q04DX003 (ip), vehicle: saline with Tween-80) 94 % of control and 115 % of control; under setting [5], 98 % of control; (dose: 25.0 mg/kg/injection, schedule: Q04DX003 (ip), vehicle: saline with Tween-80) 101 % of control and 107 % of control; under setting [6], 107 % of control. Moreover, the T/C is 97 % of control and 107 % of control under setting [7]; 122 % of control under setting [8]; 105 % of control under setting [9]; 118 % of control under setting [10]; 110 % of control and 112 % of control under setting [11]; 115 % of control (dose: 300.0 mg/kg/injection, schedule: Q04DX003 (ip), vehicle: saline with Tween-80). Besides, the T/C under setting [12] is 105 % of control.
As to `CCc1cc2c(cc1C(=O)/C=C\C(=O)O)C(C)(C)CCC2(C)C`, the T/C by setting is: (dose: 2.5 mg/kg/injection, schedule: Q01DX009 (ip), vehicle: Klucel (hydroxypropylcellulose) (HPC)) 102 % of control; (dose: 5.0 mg/kg/injection, schedule: Q01DX009 (ip), vehicle: Klucel (hydroxypropylcellulose) (HPC)) 99 % of control; (dose: 10.0 mg/kg/injection, schedule: Q01DX009 (ip), vehicle: Klucel (hydroxypropylcellulose) (HPC)) 100 % of control.
On to `CN(c1ccccc1)c1ccc([N+](=O)[O-])c2no[n+]([O-])c12`, for which the T/C was 106 % of control (dose: 15.0 mg/kg/injection, schedule: Q01DX009 (ip), vehicle: saline with Tween-80) and 118 % of control (dose: 30.0 mg/kg/injection, schedule: Q01DX009 (ip), vehicle: saline with Tween-80).
Consider `N=C(N)SCCN1C(=O)NC(c2ccccc2)(c2ccccc2)C1=O`, for which the T/C reads like this: under setting [1], 96 % of control and 99 % of control; (dose: 12.5 mg/kg/injection, schedule: Q01DX009 (ip), vehicle: saline) 90 % of control and 104 % of control; under setting [2], 93 % of control and 105 % of control; under setting [3], 102 % of control and 105 % of control; (dose: 100.0 mg/kg/injection, schedule: Q01DX009 (ip), vehicle: saline) 106 % of control and 120 % of control.
With `C[C@]12CC[C@H](O)CC1=CC[C@@H]1[C@@H]2CC[C@]2(C)c3nc4ccccc4cc3C[C@@H]12`, the T/C under setting [11] was 95 % of control.
Turning to `O=[N+]([O-])c1ccc(Cc2ccncc2)cc1`, the T/C is 100 % of control (dose: 37.5 mg/kg/injection, schedule: Q01DX009 (ip), vehicle: saline sonified); 95 % of control (dose: 75.0 mg/kg/injection, schedule: Q01DX009 (ip), vehicle: saline sonified); 95 % of control (dose: 150.0 mg/kg/injection, schedule: Q01DX009 (ip), vehicle: saline sonified).
`CC1(C)N=C(N)N=C(N)N1c1cccc(Br)c1`: the T/C (dose: 2.7 mg/kg/injection, schedule: Q04DX003 (ip), vehicle: saline) is 100 % of control; the T/C (dose: 4.0 mg/kg/injection, schedule: Q04DX003 (ip), vehicle: saline) was 90 % of control; the T/C (dose: 33.0 mg/kg/injection, schedule: Q04DX003 (ip), vehicle: saline) is 168 % of control; the T/C (dose: 50.0 mg/kg/injection, schedule: Q04DX003 (ip), vehicle: saline) is 177 % of control and 179 % of control; the T/C (dose: 75.0 mg/kg/injection, schedule: Q04DX003 (ip), vehicle: saline) is 90 % of control.
Consider `COC(=O)CC(C)Cc1ccc(OC)c(OC)c1` (configuration not stated), for which the T/C is, setting by setting: under setting [8], 104 % of control; under setting [9], 95 % of control; under setting [10], 112 % of control; under setting [11], 109 % of control; under setting [13], 109 % of control.
As for `COc1ccc(OC)c2nc3c(=O)[nH]c(=O)[nH]c3nc12`, the T/C runs as follows: (dose: 55.0 mg/kg/injection, schedule: Q01DX010 (ip), vehicle: water) 100 % of control; (dose: 80.0 mg/kg/injection, schedule: Q01DX010 (ip), vehicle: water) 109 % of control; (dose: 120.0 mg/kg/injection, schedule: Q01DX010 (ip), vehicle: water) 109 % of control; (dose: 180.0 mg/kg/injection, schedule: Q01DX010 (ip), vehicle: water) 118 % of control.
For `Cn1c(C(Cl)Cl)nc2ccccc2c1=O`, the T/C was 100 % of control (dose: 12.5 mg/kg/injection, schedule: Q01DX009 (ip), vehicle: Klucel (hydroxypropylcellulose) (HPC)); 100 % of control (dose: 25.0 mg/kg/injection, schedule: Q01DX009 (ip), vehicle: Klucel (hydroxypropylcellulose) (HPC)); 95 % of control (dose: 50.0 mg/kg/injection, schedule: Q01DX009 (ip), vehicle: Klucel (hydroxypropylcellulose) (HPC)); 100 % of control (dose: 75.0 mg/kg/injection, schedule: Q01DX009 (ip), vehicle: Klucel (hydroxypropylcellulose) (HPC)); 114 % of control (dose: 115.0 mg/kg/injection, schedule: Q01DX009 (ip), vehicle: Klucel (hydroxypropylcellulose) (HPC)); 95 % of control (dose: 170.0 mg/kg/injection, schedule: Q01DX009 (ip), vehicle: Klucel (hydroxypropylcellulose) (HPC)).
For `CN(Nc1c([N+](=O)[O-])cc([N+](=O)[O-])cc1[N+](=O)[O-])c1cccc2ccccc12`, the T/C was 109 % of control (dose: 25.0 mg/kg/injection, schedule: Q04DX003 (ip), vehicle: Klucel (hydroxypropylcellulose) (HPC)); 100 % of control (dose: 50.0 mg/kg/injection, schedule: Q04DX003 (ip), vehicle: Klucel (hydroxypropylcellulose) (HPC)); 100 % of control (dose: 100.0 mg/kg/injection, schedule: Q04DX003 (ip), vehicle: Klucel (hydroxypropylcellulose) (HPC)); 86 % of control (dose: 200.0 mg/kg/injection, schedule: Q04DX003 (ip), vehicle: Klucel (hydroxypropylcellulose) (HPC)); 90 % of control (dose: 400.0 mg/kg/injection, schedule: Q04DX003 (ip), vehicle: Klucel (hydroxypropylcellulose) (HPC)).
Consider `O=[N+]([O-])c1ccc(Oc2ccc(C3N(c4ccccc4)CCN3c3ccccc3)cc2)c([N+](=O)[O-])c1`, for which the T/C reads like this: (dose: 12.5 mg/kg/injection, schedule: Q01DX009 (ip), vehicle: water) 99 % of control; (dose: 25.0 mg/kg/injection, schedule: Q01DX009 (ip), vehicle: water) 89 % of control; (dose: 50.0 mg/kg/injection, schedule: Q01DX009 (ip), vehicle: water) 99 % of control; (dose: 100.0 mg/kg/injection, schedule: Q01DX009 (ip), vehicle: water) 90 % of control; (dose: 200.0 mg/kg/injection, schedule: Q01DX009 (ip), vehicle: water) 91 % of control.
Consider `c1ccc(-c2nnc3oc(-c4cccs4)nn23)cc1`, for which the T/C was 86 % of control under setting [8], 90 % of control under setting [10] and 90 % of control under setting [12].
`CCOC(=O)C1(C)C=C(Nc2ccc(OC)cc2)C(=O)N1c1ccc(OC)cc1` (configuration not stated): the T/C reads like this: (dose: 6.25 mg/kg/injection, schedule: Q01DX009 (ip), vehicle: saline with Tween-80) 104 % of control; under setting [4], 100 % of control; under setting [5], 100 % of control; under setting [6], 95 % of control.
In the case of `c1ccc2c(c1)C1CCC2c2ccccc21`, the T/C runs as follows: under setting [7], 100 % of control; under setting [9], 100 % of control; under setting [11], 88 % of control and 100 % of control; under setting [13], 100 % of control.
